Test results taken from patent US20250109118A1, “HETEROCYCLIC COMPOUNDS AS SHP2 INHIBITORS, COMPOSITIONS COMPRISING THE HETEROCYCLIC COMPOUND, AND METHODS OF USE THEREOF” (JS INNOMED HOLDINGS LTD., priority 2021, published 2025).

How the values were obtained:
SHP2 (PTPN11/SHP2-FL) = biological target: T1, SHP2 (PTPN11/SHP2-FL) (Homo sapiens, UniProt Q06124); assay: SHP2 biochemical assay (DiFMUP prompt fluorescence); details: 0.5 nM SHP2, 0.35 μM activating peptide, DiFMUP 100 μM; read-out: SHP2 bichemical activity (IC50)
T1 construct: SHP2 (PTPN11/SHP2-FL, RBC produced, no cat #); purchased RBC no cat #
T1 sequence (Q06124 1-593): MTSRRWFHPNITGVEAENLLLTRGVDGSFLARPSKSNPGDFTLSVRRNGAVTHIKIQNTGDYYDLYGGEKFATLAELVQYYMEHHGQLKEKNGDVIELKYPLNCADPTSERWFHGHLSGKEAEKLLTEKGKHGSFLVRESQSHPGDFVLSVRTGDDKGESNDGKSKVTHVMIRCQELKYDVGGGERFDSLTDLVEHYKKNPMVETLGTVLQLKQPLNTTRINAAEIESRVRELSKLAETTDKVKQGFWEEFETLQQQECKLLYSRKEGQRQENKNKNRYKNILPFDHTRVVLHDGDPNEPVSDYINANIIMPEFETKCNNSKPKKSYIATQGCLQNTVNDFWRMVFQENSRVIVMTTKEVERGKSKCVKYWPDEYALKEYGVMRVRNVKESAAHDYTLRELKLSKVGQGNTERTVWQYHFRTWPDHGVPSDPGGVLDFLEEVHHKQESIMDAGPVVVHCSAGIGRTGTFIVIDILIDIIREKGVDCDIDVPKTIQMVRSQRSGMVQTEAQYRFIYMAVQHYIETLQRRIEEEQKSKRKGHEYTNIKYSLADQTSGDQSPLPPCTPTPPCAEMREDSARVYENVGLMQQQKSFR
Procedure: SHP2 is allosterically activated through binding of bis-tyro syiphorphorylated peptides to its Src Homology 2 (SH2) domains. The latter activation step leads to the release of the auto-inhibitory interface of SHP2, which in turn renders the SHP2 PTP active and available for substrate recognition and reaction catalysis. The catalytic activity of SHP2 was monitored using the surrogate substrate DiFMUP in a prompt fluorescence assay format. Specifically, the phosphatase reactions were performed at room temperature in 384-well black polystyrene plate, flat bottom, low flange, non-binding surface (Corning, Cat #3575) using a final reaction volume of 20 μL and the following assay buffer conditions: 60 mM HEPES, pH 7.2, 75 mM NaCl, 75 mM KCl, 1 mM EDTA, 0.01% Brij-35, 5 mM DTT, and 10% DMSO (final). The inhibition of SHP2 from the tested compounds (final concentrations varying from 0.003-100 μM) was monitored using an assay in which 0.5 nM of SHP2 (PTPN11/SHP2-FL, RBC produced, no cat #) was incubated with 0.35 μM of the peptide H2NLN(pY)IDLDLV(dPEG8)LST(pY)ASINFQK-amide. After 20 minutes of incubation at room temperature, the surrogate substrate DiFMUP (6,8-difluoro-7-hydroxy-4-methylcoumarin, Invitrogen, cat #D6567, 100 μM final concentration) was added to the reaction. The fluorescence signal was monitored using a microplate reader (Envision, Perkin-Elmer) using excitation and emission wavelengths of 355 nm and 460 nm, respectively. The inhibitor dose response curves were analyzed using normalized IC50 regression curve fitting with control based normalization.
The IC50 values of for Compounds disclosed are listed in Table 2, A: ≤10 nM; B: >10 nM and ≤100 nM; C: >100 nM and ≤1 uM; and D: >1 μM.

MiaPaCa-2 cells = assay: MiaPaCa-2 Cell proliferation assay in 3D culture (CCK8); format: cell-based; details: Homo sapiens, MIA PaCa-2, 120 h; 3D spheroid culture, 5 days with compound, CCK8 readout
Procedure: MiaPaCa-2 Cell proliferation assay in 3D culture. To evaluate cell viability, MiaPaCa-2 cells in logarithmic growth phase were seeded at optimal density and grown in as spheroids. Cells were incubated for 24 hours prior to the addition of different concentrations of the compounds. Cells were cultured with the compounds for 5 days and the cell viability was assessed using CCK8. Briefly, 2500 cells were seeded in round bottom ultra-low attachment 96 well plates (coming) in growth media supplemented with 10% FBS and incubated at 37° C. for 24 hours. The compounds were dissolved in DMSO (Sigma) to obtain 10 mM stock solution. Then the compounds were serially diluted in 3-fold to ten concentrations; 5 μL of the dilution above was transferred to 95 uL culture media to obtain the 50× compound stock solution; 4 uL of the 50× compound above was then transferred to the wells containing cells with 196 μL of the culture medium to obtain the final 1× concentration. The final concentration of DMSO was 0.1%. Spheroid cells were incubated in compounds for 5 days. Then 20 μL WST-8 solution (DOJINDO, Cell Counting KIT-8) was added to each well. The plates were further incubated at 37° C. for 1.5 hours, and then absorbance at 450 nm was measured using a microplate reader. Each compound was tested in triplicate and the IC50 value was calculated using GraphPad Prism.
The IC50 values of for Compounds disclosed are listed in Table 2, A: ≤500 nM; B: >500 nM and ≤5 μM; C: >5 μM and ≤50 μM; and D: >50 μM.

| IC50 (SHP2 (PTPN11/SHP2-FL)) | IC50 (MiaPaCa-2 cells) | Structure (SMILES) |
| --- | --- | --- |
| ≤ 10 nM | 500 to 5000 nM | CC1(N)CCN(c2cnc(Sc3cccc(C(=O)NS(=O)(=O)c4ccccc4)c3Cl)cn2)CC1 [Example 3, 3-((5-(4-amino-4-methylpiperidin-1-yl)pyrazin-2-yl)thio)-2-chloro-N-(phenylsulfonyl)benzamide] |
| 10 to 100 nM | 500 to 5000 nM | CC1(CN)CCN(c2cnc(Sc3cccc(C(=O)NS(=O)(=O)C4CC4)c3Cl)c(N)n2)CC1 [Example 36, 3-((3-amino-5-(4-(aminomethyl)-4-methylpiperidin-1-yl)pyrazin-2-yl)thio)-2-chloro-N-(cyclopropylsulfonyl)benzamide] |
| 10 to 100 nM | 500 to 5000 nM | CC1(CN)CCN(c2cnc(Sc3cccc(S(=O)(=O)NC(=O)c4ccccc4)c3Cl)cn2)CC1 [Example 7, N-((3-((5-(4-(aminomethyl)-4-methylpiperidin-1-yl)pyrazin-2-yl)thio)-2-chlorophenyl)sulfonyl)benzamide] |
| ≤ 10 nM | 5000 to 50000 nM | CC1(CN)CCN(c2cnc(Sc3cccc(NC(=O)NS(=O)(=O)c4ccncc4)c3Cl)c(N)n2)CC1 [Example 41, N-((3-((3-amino-5-(4-(aminomethyl)-4-methylpiperidin-1-yl)pyrazin-2-yl)thio)-2-chlorophenyl)carbamoyl)pyridine-4-sulfonamide] |
| ≤ 10 nM | ≤ 500 nM | CC1(CN)CCN(c2cnc(Sc3cccc(C(=O)NS(=O)(=O)c4ccccn4)c3Cl)cn2)CC1 [Example 22, 3-((5-(4-(aminomethyl)-4-methylpiperidin-1-yl)pyrazin-2-yl)thio)-2-chloro-N-(pyridin-2-ylsulfonyl)benzamide] |
| ≤ 10 nM | ≤ 500 nM | CC1(CN)CCN(c2cnc(Sc3cccc(NC(=O)NS(=O)(=O)C4CCCC4)c3Cl)c(N)n2)CC1 [Example 42, N-((3-((3-amino-5-(4-(aminomethyl)-4-methylpiperidin-1-yl)pyrazin-2-yl)thio)-2-chlorophenyl)carbamoyl)cyclopentanesulfonamide] |
| ≤ 10 nM | ≤ 500 nM | CC1(CN)CCN(c2cnc(Sc3cccc(C(=O)NS(C)(=O)=O)c3Cl)cn2)CC1 [Example 26, 3-((5-(4-(aminomethyl)-4-methylpiperidin-1-yl)pyrazin-2-yl)thio)-2-chloro-N-(methylsulfonyl)benzamide] |
| ≤ 10 nM | ≤ 500 nM | CC1(CN)CCN(c2cnc(Sc3cccc(C(=O)NS(=O)(=O)c4ccccc4)c3Cl)c(N)n2)CC1 [Example 5, 3-((3-amino-5-(4-(aminomethyl)-4-methylpiperidin-1-yl)pyrazin-2-yl)thio)-2-chloro-N-(phenylsulfonyl)benzamide] |
| 10 to 100 nM | 5000 to 50000 nM | CC1(N)CCN(c2cnc(Sc3cccc(C(=O)NS(C)(=O)=O)c3Cl)cn2)CC1 [Example 19, 3-((5-(4-amino-4-methylpiperidin-1-yl)pyrazin-2-yl)thio)-2-chloro-N-(methylsulfonyl)benzamide] |
| ≤ 10 nM | ≤ 500 nM | CC1(CN)CCN(c2cnc(Sc3cccc(C(=O)NS(=O)(=O)C4CCCCC4)c3Cl)cn2)CC1 [Example 27, 3-((5-(4-(aminomethyl)-4-methylpiperidin-1-yl)pyrazin-2-yl)thio)-2-chloro-N-(cyclohexylsulfonyl)benzamide] |
|  | ≤ 500 nM | C[C@@H]1OCC2(CCN(c3cnc(Sc4ccnc(NC(=O)NS(=O)(=O)C5CC5)c4Cl)cn3)CC2)[C@@H]1N [Example 57, N-((4-((5-((3S,4S)-4-amino-3-methyl-2-oxa-8-azaspiro[4.5]decan-8-yl)pyrazin-2-yl)thio)-3-chloropyridin-2-yl)carbamoyl)cyclopropanesulfonamide] |
|  | 500 to 5000 nM | C[C@@H]1OCC2(CCN(c3ncc(Sc4ccnc(NC(=O)NS(=O)(=O)c5ccccc5)c4Cl)c4nncn34)CC2)[C@@H]1N [Example 15, N-((4-((5-((3S,4S)-4-amino-3-methyl-2-oxa-8-azaspiro[4.5]decan-8-yl)[1,2,4]triazolo[4,3-c]pyrimidin-8-yl)thio)-3-chloropyridin-2-yl)carbamoyl)benzenesulfonamide] |
